Source: patent publication US8703744B2, “Cholesterol level lowering liposomes” (priority 2009, dated 2014)

Tested on: Huh7.5 cells
Assay: Uptake of rh-PE-labeled 22:6 ER liposomes into Huh7.5 cells in the presence of drugs that up- and down-regulate LDLr expression
Assay type: cell-based, human
Details: 10 μM, 24 h pre-treatment, then 50 μM rhodamine-labeled 22:6 ER liposomes for 24 h
Method: Liposomes were prepared as described in US patent publication no. 20090252785 and included 1% (total moles) of rh-PE for monitoring their uptake in cells. JC-1-infected (MOI=0.5) or uninfected Huh7.5 cells were seeded in 6 well plates at a density of 3×10^5 cell/well in 2 ml of complete DMEM/10% FCS medium. Cells were either pre-treated or not with 1 μM and 10 μM squalestatin (SQ, Sigma) or 25-hydroxycholesterol (25-HC, Sigma) for 24 h in serum-free complete DMEM. Following the 24 h pre-incubation, rh-labeled liposomes were added to a final lipid concentration of 50 μM, and left to incubate for a further 24 h. Following incubation times, cells were washed twice in 1×PBS, detached, counted, and resuspended in 200 μl 1×PBS/1% Triton® X-100 before being transferred to a 96 well plate to read in a spectrofluorometer at λex=550 nm, Xem=590 nm.
22:6 ER liposomes (final lipid concentration of 50 μM), labeled with 1% rh-PE in the lipid bilayer, were then added to cells and left to incubate a further 24 h. Cells were then harvested, counted, and rh-PE fluorescence was measured at λex=550 nm, Xem=590 nm. All data represent the mean and SD of triplicates from three independent experiments. Data are presented in relation to the untreated control (100%), and significant differences from this value are denoted with * (P<0.05) or ** (P<0.001).

Row | Compound | decrease in liposome uptake | liposome uptake, in relation to the untreated control (100%)
1 | C[C@H](CCCC(C)(C)O)[C@H]1CC[C@H]2[C@@H]3CC=C4C[C@@H](O)CC[C@]4(C)[C@H]3CC[C@]12C [25-HC, 25-hydroxycholesterol] | 69% | 
2 | C=C(CC[C@]12O[C@H](C(=O)O)[C@@](O)(C(=O)O)[C@](C(=O)O)(O1)[C@H](OC(=O)/C=C/[C@@H](C)C[C@@H](C)CC)[C@H]2O)[C@@H](OC(C)=O)[C@H](C)Cc1ccccc1 [SQ, squalestatin] |  | 117%
